Experimental data published in ChEMBL document CHEMBL2095176, “GSK Tuberculosis Screening Data”.
In brackets after ≈: the same amount, converted by molar mass.

Experiments:
[1] = buffer, pH 7.4
Description: (§1) GSK_TB: GSK in-house hydrophobicity assay at pH7.4 (logD)

[2] = octanol/water
Description: (§2) GSK_TB: GSK in-house hydrophobicity assay (logP)

physchem [3] = conditions: phosphate buffered saline, pH 7.4
[4] = system: Mycobacterium tuberculosis H37Rv; experiment: microbe, parasite or virus in culture
Description: GSK_TB: Intracellular minimum inhibitory concentration (MIC) H37Rv assay

physchem [5] = conditions: buffer, pH 7.4
Description: as §1

physchem [6] = conditions: octanol/water
Description: as §2

| Structure (SMILES) | logD7.4 [1] | logP [2] | solubility kinetic (physchem [3]) [µM] | MIC90 [4] [µM] | logD (physchem [5]) | logP (physchem [6]) |
| --- | --- | --- | --- | --- | --- | --- |
| CC(C)(C)c1ccc(-c2nnc(SCC(=O)OC3CCCCC3)o2)cc1 | 9.17 | 9.65 | 1 (≈ 0.375 µg/mL) | 1.74 (≈ 0.651 µg/mL) | – | – |
| Br.Cc1ccccc1OCCCON1C(=N)N=C(N)NC1(C)C | – | – | 436 | 3.76 | 2.83 | 3.92 |
| N#Cc1ccc2c(c1)CCN(CCCSc1ccnc3cc(C(F)(F)F)ccc13)CC2 | – | – | 1 (≈ 0.442 µg/mL) | 2.4 (≈ 1.06 µg/mL) | 7.96 | 8.64 |
| Brc1c(-c2ccc3c(c2)OCO3)nc2ncccn12 | – | – | 219 (≈ 69.7 µg/mL) | 4.7 (≈ 1.5 µg/mL) | 3.48 | 3.48 |
| O=C(O)C(F)(F)F.c1ccc2c(-c3ccc(CNCC4CCNC4)cc3)cncc2c1 (stereo not given) | – | – | 61 | 5.56 | 1.52 | 3.02 |
| FC(F)(F)c1nnc2ccc(Cl)nn12 | – | – | 344 (≈ 76.6 µg/mL) | 9.1 (≈ 2.03 µg/mL) | 3.11 | 3.1 |
| O=C(NCc1ccc2c(c1)OCO2)c1c(C(F)(F)F)nc2ccccn12 | – | – | 115 (≈ 41.8 µg/mL) | 3.3 (≈ 1.2 µg/mL) | 4.23 | 4.38 |
| CSc1cccc(C(=O)Nc2nc(-c3ccccn3)cs2)c1 | – | – | 12 (≈ 3.93 µg/mL) | 3.72 (≈ 1.22 µg/mL) | 5.25 | 5.26 |
| CNc1nc(SC)nc2ccsc12 | – | – | 439 (≈ 92.8 µg/mL) | 3.4 (≈ 0.718 µg/mL) | 3.3 | 3.3 |
| CCOC(=O)c1cc(-c2csc(Nc3c(C)cc(C)cc3C)n2)on1 | – | – | 1 (≈ 0.357 µg/mL) | 4.07 (≈ 1.46 µg/mL) | 7.12 | 7.45 |
| Nc1nc(N)c2c(Sc3ccc4ccccc4c3)cccc2n1 | – | – | 32 (≈ 10.2 µg/mL) | 8.71 (≈ 2.77 µg/mL) | 4.41 | 4.72 |
| N=C(Nc1nc(-c2ccccn2)cc2ccccc12)c1cccc(Cl)c1 | – | – | 1 (≈ 0.359 µg/mL) | 4.5 (≈ 1.61 µg/mL) | 8.24 | 8.64 |
| CCN(CC)c1ccc(-c2nn3c(-c4n[nH]c5c4CCC5)nnc3s2)cc1 | 5.44 | – | 1 (≈ 0.379 µg/mL) | 1.5 (≈ 0.569 µg/mL) | – | 5.78 |
| CC(C)n1ncc2c(C(=O)NCC(c3cccs3)N3CCOCC3)cc(-c3ccccc3)nc21 (stereo not given) | – | – | 1 (≈ 0.476 µg/mL) | 4.8 (≈ 2.28 µg/mL) | 7.21 | 7.54 |
| Fc1ccccc1-c1noc(N2CCN(Cc3ccc4c(c3)OCO4)CC2)n1 | – | – | 10 (≈ 3.82 µg/mL) | 5.2 (≈ 1.99 µg/mL) | 6.56 | 6.94 |
| Br.Cc1cc(C)cc(OCCCON2C(=N)N=C(N)NC2(C)C)c1 | – | – | 358 | 5.31 | 3.2 | 4.72 |
| Cc1nc2ccccn2c1C(=O)NCc1ccccc1 | – | – | 403 (≈ 107 µg/mL) | 2 (≈ 0.531 µg/mL) | 3.2 | 3.2 |
| COc1ccc(CC(=O)Nc2c(-c3cccs3)nc3cc(C)ccn23)cc1 | – | – | 87 (≈ 32.8 µg/mL) | 6.8 (≈ 2.57 µg/mL) | 3.95 | 4.02 |
| COc1cc(Nc2ccccc2)ccc1NS(=O)(=O)c1c(C)noc1C | – | – | 53 (≈ 19.8 µg/mL) | 6.1 (≈ 2.28 µg/mL) | 5.53 | 5.78 |
| N=C(N)c1ccc(CCN2CCC(c3nc(COCC(F)(F)F)c(-c4ccc(F)cc4)o3)CC2)cc1.O=C(O)C(F)(F)F.O=C(O)C(F)(F)F | – | – | 255 | 6.17 | 3.76 | 6.14 |
| Cc1nn(Cc2ccccc2)c(Cl)c1C(=O)NC1CCCCCC1 | – | – | 28 (≈ 9.68 µg/mL) | 5.2 (≈ 1.8 µg/mL) | 6.75 | 7.04 |
| Nc1cc(OCc2ccccc2)ccc1Nc1ccccc1 | – | – | 1 (≈ 0.29 µg/mL) | 9.44 (≈ 2.74 µg/mL) | 6.65 | 6.94 |
| CCOc1ccc(-c2nc(CNCCc3ccc(F)cc3)cs2)cc1.O=C(O)C(=O)O | – | – | 159 | 1.07 | 6.09 | 7.45 |

| Structure (SMILES) | logD7.4 [1] | logP [2] | solubility kinetic (physchem [3]) [µM] | MIC90 [4] [µM] | logD (physchem [5]) | logP (physchem [6]) |
| --- | --- | --- | --- | --- | --- | --- |
| CC(C)c1ccc(-c2cncc(N3CCN(c4ccncc4)CC3)n2)cc1 | – | – | 89 (≈ 32 µg/mL) | 8.32 (≈ 2.99 µg/mL) | 4.79 | 6.74 |
| O=C(N[C@@H](Cc1ccccc1)C(=O)Nc1ccccc1N1CCOCC1)c1cccs1 | – | – | 52 (≈ 22.6 µg/mL) | 6.6 (≈ 2.87 µg/mL) | 5.53 | 5.78 |
| Cn1c(=O)c2c([S+](C)[O-])snc2n(C)c1=O (stereo not given) | – | – | 420 (≈ 109 µg/mL) | 9.77 (≈ 2.53 µg/mL) | 1.24 | 1.24 |
| OC1(c2ccccc2)Oc2ccccc2N=C1c1ccccc1 (stereo not given) | – | – | 263 (≈ 79.3 µg/mL) | 6.68 (≈ 2.01 µg/mL) | 6.09 | 6.19 |
| CCN(Cc1ccc2c(c1)OCO2)C(=O)CSc1nc(NC)c2ccccc2n1 | – | – | 74 (≈ 30.4 µg/mL) | 2.8 (≈ 1.15 µg/mL) | 4.69 | 4.83 |
| c1ccc(-c2nnc(Sc3ccnc(N4CCN(c5ccncc5)CC4)n3)n2CCCN2CCOCC2)nc1 | – | – | 154 (≈ 83.9 µg/mL) | 6.38 (≈ 3.48 µg/mL) | 2.08 | 3.22 |
| O=C(Nc1ccccc1-c1nc(C2CCC2)cs1)OCC1CCNCC1.O=C(O)C(F)(F)F | – | – | 115 | 8.71 | 4.41 | 8.15 |
| COc1cc(C(F)(F)F)nc2ccc(C)c(N)c12 | – | – | 446 (≈ 114 µg/mL) | 5.3 (≈ 1.36 µg/mL) | 4.97 | 5.13 |
| c1ccc(CCNc2cc(-c3ccccc3)nc3nncn23)cc1 | – | – | 6 (≈ 1.89 µg/mL) | 5.5 (≈ 1.73 µg/mL) | 4.97 | 5.13 |
| O=C(NC1=NCCS1)c1sc2cc(F)ccc2c1Cl | – | – | 1 (≈ 0.315 µg/mL) | 8.61 (≈ 2.71 µg/mL) | 5.16 | 5.49 |
| O=C(C=Cc1cccs1)N1CCN(Cc2ccc(Br)s2)CC1 | – | – | 152 (≈ 60.4 µg/mL) | 1.9 (≈ 0.755 µg/mL) | 6.47 | 6.74 |
| CCCCS(=O)(=O)Nc1ccc2cnn(C)c2c1 | – | – | 552 (≈ 148 µg/mL) | 1.3 (≈ 0.348 µg/mL) | 3.48 | 3.58 |
| Br.CCCc1cc(C(C)=O)ccc1OCCCON1C(=N)N=C(N)NC1(C)C | – | – | 201 | 2.34 | 2.92 | 4.02 |
| c1ccc(-c2nc(NC3CCCCC3)cc(C3CC3)n2)nc1 | – | – | 302 (≈ 88.9 µg/mL) | 7.08 (≈ 2.08 µg/mL) | 6.09 | 6.74 |
| O=C(Nc1nc(-c2ccccn2)cs1)c1cncn1-c1ccccc1 | – | – | 118 (≈ 41 µg/mL) | 7.94 (≈ 2.76 µg/mL) | 3.39 | 3.38 |
| O=C(Nc1nnc(-c2ccc(Cl)cc2)o1)c1cccc(C(F)(F)F)c1 | – | – | 1 (≈ 0.368 µg/mL) | 5.62 (≈ 2.07 µg/mL) | 4.51 | 6.29 |
| C=CCNc1nc(SC)nc2ccccc12 | – | – | 279 (≈ 64.5 µg/mL) | 3.2 (≈ 0.74 µg/mL) | 4.97 | 5.13 |
| Cc1nc2ccccn2c1C(=O)Nc1ccc(C(C)(C)C)cc1 | – | – | 85 (≈ 26.1 µg/mL) | 6.2 (≈ 1.91 µg/mL) | 5.81 | 6.03 |
| O=C(NNC(=O)c1ccc([N+](=O)[O-])o1)c1ccc2ccccc2c1 | – | – | 1 (≈ 0.325 µg/mL) | 8.32 (≈ 2.71 µg/mL) | 3.02 | 3.48 |
| COc1ccc(CCNC(=O)c2c(C)nc3ccccn23)cc1 | – | – | 348 (≈ 108 µg/mL) | 3.1 (≈ 0.959 µg/mL) | 3.39 | 3.41 |
| CC1=Nc2ccccc2CN1CC(O)c1cc(Br)cs1 (stereo not given) | – | – | 563 (≈ 198 µg/mL) | 7.85 (≈ 2.76 µg/mL) | 2.46 | 4.12 |
| CC(=O)NCCn1c(Sc2ccnc(N3CCN(c4ccncc4)CC3)n2)nnc1-c1ccccc1 | – | – | 135 (≈ 67.7 µg/mL) | 8.91 (≈ 4.47 µg/mL) | 1.06 | 1.82 |
